Common to all, as to format: functional
Experiment [1] relates to Escherichia coli. As to the kind of experiment: Antimicrobial activity against delta-sbmA deletion mutant containing Escherichia coli BW25113 incubated for 18 hrs at 37 degC by broth microdilution method. The settings on record: BW25113, 18 h.
For experiment [2], the system named is Escherichia coli. The experiment is described as follows: Antimicrobial activity against Escherichia coli ATCC 25922 incubated for 18 hrs at 37 degC by broth microdilution method. To be noted: ATCC 25922, 18 h. (In general: Dilution methods test growth across graded concentrations, often in twofold steps.)
Experiment [3] concerns Escherichia coli. As to the kind of experiment: Antimicrobial activity against O-antigen lacking LPS containing wild type Escherichia coli BW25113 incubated for 18 hrs at 37 degC by broth microdilution method. To be noted: BW25113, 18 h.
The subject of experiment [4] is Escherichia coli. As to the kind of experiment: Antimicrobial activity against delta-waaG deletion mutant containing Escherichia coli BW25113 incubated for 18 hrs at 37 degC by broth microdilution method. To be noted: BW25113, 18 h.
Experiment [5] relates to Escherichia coli. As to the kind of experiment: Antimicrobial activity against Escherichia coli HB101 incubated for 18 hrs at 37 degC by broth microdilution method. To be noted: HB101, 18 h.

The values that follow come from ChEMBL document CHEMBL3407397, “Effect of size and N-terminal residue characteristics on bacterial cell penetration and antibacterial activity of the proline-rich peptide Bac7” (J Med Chem, 2015).

Converted amounts (≈) assume the structure as drawn. Non-standard residues stand in square brackets, D forms with d. Residues, ends and D or L forms follow the SMILES beside them. *: point of attachment. Arg(NO2) = N=C(NCCC[C@H](N)C(=O)O)N[N+](=O)[O-]; Gly(N-(CH2)3-guanidino) = N=C(N)NCCCNCC(=O)O; Arg(Me2a) = CN(C)C(=N)NCCC[C@H](N)C(=O)O; X1 = F[B-]1(F)n2c(ccc2*)C=C2C=CC=[N+]21

Turning to `CC[C@H](C)[C@H](NC(=O)[C@@H](CCCNC(=N)N)NC(=O)[C@H](N)CCCNC(=N)N)C(=O)N[C@@H](CCCNC(=N)N)C(=O)N1CCC[C@H]1C(=O)N[C@@H](CCCNC(=N)N)C(=O)N1CCC[C@H]1C(=O)N1CCC[C@H]1C(=O)N[C@@H](CCCNC(=N)N)C(=O)N[C@@H](CC(C)C)C(=O)N1CCC[C@H]1C(=O)N[C@@H](CCCNC(=N)N)C(=O)N1CCC[C@H]1C(=O)N[C@@H](CCCNC(=N)N)C(=O)N1CCC[C@H]1C(=O)N[C@@H](CCCNC(=N)N)C(=O)N1CCC[C@H]1C(=O)N[C@@H](CC(C)C)C(=O)N1CCC[C@H]1C(=O)N[C@@H](Cc1ccc(O)cc1)C(=O)N1CCC[C@H]1C(=O)N[C@@H](CCCNC(=N)N)C(=O)N1CCC[C@H]1C(=O)O`, the MIC in experiment [1] came out at 16 µM (≈ 46.4 µg/mL); in experiment [2], 4 µM (≈ 11.6 µg/mL); in experiment [3] it was 4 µM (≈ 11.6 µg/mL); in experiment [4], 2 µM (≈ 5.8 µg/mL).
Take `CC[C@H](C)[C@H](NC(=O)[C@H](CCCNC(=N)N)NC(=O)[C@@H](N)CCCNC(=N)N)C(=O)N[C@@H](CCCNC(=N)N)C(=O)N1CCC[C@H]1C(=O)N[C@@H](CCCNC(=N)N)C(=O)N1CCC[C@H]1C(=O)N1CCC[C@H]1C(=O)N[C@@H](CCCNC(=N)N)C(=O)N[C@@H](CC(C)C)C(=O)N1CCC[C@H]1C(=O)N[C@@H](CCCNC(=N)N)C(=O)N1CCC[C@H]1C(=O)N[C@@H](CCCNC(=N)N)C(=O)N1CCC[C@H]1C(=O)N[C@@H](CCCNC(=N)N)C(=O)N[C@@H](CSc1ccc2n1[B-](F)(F)[N+]1=CC=CC1=C2)C(=O)O` (H-RRIRPRPPRLPRPRPRC(X1)-OH): the minimal inhibitory concentration (MIC) in experiment [2] and in experiment [5] was 0.5 µM (≈ 1.18 µg/mL) throughout.
Turning to `CC[C@H](C)[C@H](NC(=O)[C@H](CCCNC(=N)N(C)C)NC(=O)[C@@H](N)CCCNC(=N)N)C(=O)N[C@@H](CCCNC(=N)N)C(=O)N1CCC[C@H]1C(=O)N[C@@H](CCCNC(=N)N)C(=O)N1CCC[C@H]1C(=O)N1CCC[C@H]1C(=O)N[C@@H](CCCNC(=N)N)C(=O)N[C@@H](CC(C)C)C(=O)N1CCC[C@H]1C(=O)N[C@@H](CCCNC(=N)N)C(=O)N1CCC[C@H]1C(=O)N[C@@H](CCCNC(=N)N)C(=O)N1CCC[C@H]1C(=O)N[C@@H](CCCNC(=N)N)C(=O)N1CCC[C@H]1C(=O)N[C@@H](CC(C)C)C(=O)N1CCC[C@H]1C(=O)N[C@@H](Cc1ccc(O)cc1)C(=O)N1CCC[C@H]1C(=O)N[C@@H](CCCNC(=N)N)C(=O)N1CCC[C@H]1C(=O)O` (H-R[Arg(Me2a)]IRPRPPRLPRPRPRPLPYPRP-OH), the MIC in experiment [1] was found to be 8 µM (≈ 23.4 µg/mL); in experiment [2], 4 µM (≈ 11.7 µg/mL); in experiment [3], 4 µM (≈ 11.7 µg/mL); in experiment [4], 1 µM (≈ 2.93 µg/mL).
Take `CC[C@H](C)[C@H](NC(=O)[C@H](CCCNC(=N)N)NC(=O)[C@@H](N)CCCNC(=N)N(C)C)C(=O)N[C@@H](CCCNC(=N)N)C(=O)N1CCC[C@H]1C(=O)N[C@@H](CCCNC(=N)N)C(=O)N1CCC[C@H]1C(=O)N1CCC[C@H]1C(=O)N[C@@H](CCCNC(=N)N)C(=O)N[C@@H](CC(C)C)C(=O)N1CCC[C@H]1C(=O)N[C@@H](CCCNC(=N)N)C(=O)N1CCC[C@H]1C(=O)N[C@@H](CCCNC(=N)N)C(=O)N1CCC[C@H]1C(=O)N[C@@H](CCCNC(=N)N)C(=O)N1CCC[C@H]1C(=O)N[C@@H](CC(C)C)C(=O)N1CCC[C@H]1C(=O)N[C@@H](Cc1ccc(O)cc1)C(=O)N1CCC[C@H]1C(=O)N[C@@H](CCCNC(=N)N)C(=O)N1CCC[C@H]1C(=O)O` (H-[Arg(Me2a)]RIRPRPPRLPRPRPRPLPYPRP-OH): the MIC in experiment [1] came out at 8 µM (≈ 23.4 µg/mL); in experiment [2], 2 µM (≈ 5.85 µg/mL); in experiment [3] it was 2 µM (≈ 5.85 µg/mL); in experiment [4] it was 0.5 µM (≈ 1.46 µg/mL).
`CC[C@H](C)[C@H](NC(=O)[C@H](CCCNC(=N)N(C)C)NC(=O)[C@@H](N)CCCNC(=N)N(C)C)C(=O)N[C@@H](CCCNC(=N)N)C(=O)N1CCC[C@H]1C(=O)N[C@@H](CCCNC(=N)N)C(=O)N1CCC[C@H]1C(=O)N1CCC[C@H]1C(=O)N[C@@H](CCCNC(=N)N)C(=O)N[C@@H](CC(C)C)C(=O)N1CCC[C@H]1C(=O)N[C@@H](CCCNC(=N)N)C(=O)N1CCC[C@H]1C(=O)N[C@@H](CCCNC(=N)N)C(=O)N1CCC[C@H]1C(=O)N[C@@H](CCCNC(=N)N)C(=O)N1CCC[C@H]1C(=O)N[C@@H](CC(C)C)C(=O)N1CCC[C@H]1C(=O)N[C@@H](Cc1ccc(O)cc1)C(=O)N1CCC[C@H]1C(=O)N[C@@H](CCCNC(=N)N)C(=O)N1CCC[C@H]1C(=O)O` (H-[Arg(Me2a)][Arg(Me2a)]IRPRPPRLPRPRPRPLPYPRP-OH): the minimum inhibitory concentration (MIC) amounted to 16 µM (≈ 47.3 µg/mL) in experiment [1], 8 µM (≈ 23.6 µg/mL) in experiment [2], 8 µM (≈ 23.6 µg/mL) in experiment [3] and 2 µM (≈ 5.91 µg/mL) in experiment [4].
`CC[C@H](C)[C@H](NC(=O)[C@H](CCCNC(=N)N)NC(=O)[C@@H](N)CCCN/C(N)=N\[N+](=O)[O-])C(=O)N[C@@H](CCCNC(=N)N)C(=O)N1CCC[C@H]1C(=O)N[C@@H](CCCNC(=N)N)C(=O)N1CCC[C@H]1C(=O)N1CCC[C@H]1C(=O)N[C@@H](CCCNC(=N)N)C(=O)N[C@@H](CC(C)C)C(=O)N1CCC[C@H]1C(=O)N[C@@H](CCCNC(=N)N)C(=O)N1CCC[C@H]1C(=O)N[C@@H](CCCNC(=N)N)C(=O)N1CCC[C@H]1C(=O)N[C@@H](CCCNC(=N)N)C(=O)N1CCC[C@H]1C(=O)N[C@@H](CC(C)C)C(=O)N1CCC[C@H]1C(=O)N[C@@H](Cc1ccc(O)cc1)C(=O)N1CCC[C@H]1C(=O)N[C@@H](CCCNC(=N)N)C(=O)N1CCC[C@H]1C(=O)O` (H-[Arg(NO2)]RIRPRPPRLPRPRPRPLPYPRP-OH): the MIC in experiment [1] was 8 µM (≈ 23.5 µg/mL); in experiment [2], 4 µM (≈ 11.8 µg/mL); in experiment [3], 4 µM (≈ 11.8 µg/mL); in experiment [4] it was 1 µM (≈ 2.94 µg/mL).
`CC[C@H](C)[C@H](NC(=O)CN(CCCNC(=N)N)C(=O)CNCCCNC(=N)N)C(=O)N[C@@H](CCCNC(=N)N)C(=O)N1CCC[C@H]1C(=O)N[C@@H](CCCNC(=N)N)C(=O)N1CCC[C@H]1C(=O)N1CCC[C@H]1C(=O)N[C@@H](CCCNC(=N)N)C(=O)N[C@@H](CC(C)C)C(=O)N1CCC[C@H]1C(=O)N[C@@H](CCCNC(=N)N)C(=O)N1CCC[C@H]1C(=O)N[C@@H](CCCNC(=N)N)C(=O)N1CCC[C@H]1C(=O)N[C@@H](CCCNC(=N)N)C(=O)N1CCC[C@H]1C(=O)N[C@@H](CC(C)C)C(=O)N1CCC[C@H]1C(=O)N[C@@H](Cc1ccc(O)cc1)C(=O)N1CCC[C@H]1C(=O)N[C@@H](CCCNC(=N)N)C(=O)N1CCC[C@H]1C(=O)O` (H-[Gly(N-(CH2)3-guanidino)][Gly(N-(CH2)3-guanidino)]IRPRPPRLPRPRPRPLPYPRP-OH): the MIC in experiment [1] was determined as 8 µM (≈ 23.2 µg/mL); in experiment [2] it was 1 µM (≈ 2.9 µg/mL); in experiment [3], 0.5 µM (≈ 1.45 µg/mL); in experiment [4], 0.5 µM (≈ 1.45 µg/mL).
On to H-KKIRPRPPRLPRPRPRPLPYPRP-OH, for which the MIC in experiment [1] turned out to be 16 µM; in experiment [2], 4 µM; in experiment [3] it was 4 µM; in experiment [4], 2 µM.
Take H-RRIRPRPPRLPRP-OH: the results for the minimum inhibitory concentration (MIC) in experiment [2] and in experiment [5] were greater than 128 µM and 64 µM, respectively.
The matching figures for H-RRIRPRPPRLPRPC-OH: greater than 128 µM and 128 µM.
For H-RRIRPRPPRLPRPRP-OH, the MIC came out at 32 µM in experiment [2] and 16 µM in experiment [5].
With H-RRIRPRPPRLPRPRPC-OH, the MIC in experiment [2] and in experiment [5] was 8 µM each time.
Turning to H-RRIRPRPPRLPRPRPR-OH, the MIC in experiment [2] and in experiment [5] was 0.5 µM in each case.

Broadly, the MIC is the lowest concentration that inhibits growth of the organism. Read a low MIC as inhibition by little substance.
